In one data set the target is T1, TLR7 (Mus musculus, UniProt P58681).
T1 construct: endogenous in cells; host or cells: primary splenocytes of BALB/c mice
T1 sequence (P58681 27-1050): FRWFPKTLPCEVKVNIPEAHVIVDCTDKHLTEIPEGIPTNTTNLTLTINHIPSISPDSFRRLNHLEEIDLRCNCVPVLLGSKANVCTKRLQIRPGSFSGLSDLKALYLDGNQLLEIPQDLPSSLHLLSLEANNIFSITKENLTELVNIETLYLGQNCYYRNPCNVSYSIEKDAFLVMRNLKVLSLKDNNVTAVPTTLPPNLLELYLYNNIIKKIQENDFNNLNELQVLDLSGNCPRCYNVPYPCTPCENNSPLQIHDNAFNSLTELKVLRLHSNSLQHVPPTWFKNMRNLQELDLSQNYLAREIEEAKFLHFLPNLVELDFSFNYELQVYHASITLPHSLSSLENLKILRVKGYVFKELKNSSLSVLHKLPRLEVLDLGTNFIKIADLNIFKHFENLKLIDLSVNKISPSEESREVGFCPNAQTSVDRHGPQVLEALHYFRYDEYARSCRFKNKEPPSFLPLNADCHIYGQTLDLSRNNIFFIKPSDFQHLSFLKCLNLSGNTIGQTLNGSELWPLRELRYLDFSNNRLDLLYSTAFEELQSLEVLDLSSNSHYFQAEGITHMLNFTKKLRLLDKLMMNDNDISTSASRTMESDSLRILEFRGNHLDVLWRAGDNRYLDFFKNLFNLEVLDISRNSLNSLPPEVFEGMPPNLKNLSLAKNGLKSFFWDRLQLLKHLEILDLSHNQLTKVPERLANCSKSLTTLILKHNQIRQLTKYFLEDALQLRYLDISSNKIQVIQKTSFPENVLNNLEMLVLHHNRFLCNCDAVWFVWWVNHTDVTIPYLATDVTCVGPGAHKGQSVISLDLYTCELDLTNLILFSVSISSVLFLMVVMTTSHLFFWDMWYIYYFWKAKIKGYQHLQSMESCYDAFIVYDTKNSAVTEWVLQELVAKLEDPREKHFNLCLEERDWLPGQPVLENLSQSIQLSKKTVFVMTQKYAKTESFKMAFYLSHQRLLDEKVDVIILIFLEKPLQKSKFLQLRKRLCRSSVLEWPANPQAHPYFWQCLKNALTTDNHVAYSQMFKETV
Description: Tape stripping in TLR9-deficient mice. Type of data set: in vivo. The following applies: 100 μg sc, 24 hr. As for the experimental part: (A) TLR7−/− (black histograms) and age matched WT C57/BL6 mice (grey histograms) were either left untreated (naive) or tape stripped to provoke inflammation. 24 hr later, skin biopsies were isolated and the levels of proinflammatory genes evaluated by Taqman. n=10 mice is shown (Mean±SEM); * p≦0.05. B) TLR9−/− were tape stripped (black histograms) or tape stripped immediately after treatment (s.c) with the dual TLR7 and TLR9 inhibitor IRS 954 (100 μg; sc) (dashed histograms). Age matched WT C57/BL6 mice were either left untreated (naïve; white histograms) or tape stripped (grey histograms). 24 hr later, skin biopsies were isolated and the levels of proinflammatory genes evaluated by Taqman. n=10 mice is shown (Mean±SEM); * p≦0.05.
C57BL/6 and 129 mice were purchased from Charles River Laboratories. (NZBxNZW)F1 female mice were purchased from Jackson Laboratories and used at 18-22 weeks of age. MyD88/KO and TLR9/KO mouse colonies were maintained at Simonsen Laboratories and used with age matched C57BL/6 wild type controls at 8-12 weeks of age. Tape stripping was performed after shaving the dorsal area (3×3 cm) using 10 strokes with duct tape. IRS was administered just before tape stripping SC at a distant site. […] Percentage of area with open lesions in (NZBxNZW)F1 and normal mice was evaluated with Nikon software NIS-elements.

Results on one substance are retold here after patent US8940310B2, “Methods of treatment using TLR7 and/or TLR9 inhibitors” (Dynavax Technologies Corporation, priority 2010, dated 2015).

As to “5′-TGCTCCTGGAGGGGTTGT-3′ (DNA, backbone not given here) [SEQ ID NO:42]”, the “inhibition of skin gene expression” value in the data set with TLR7 is listed as “completed the inhibition”. For the same substance, in the data set with PDC (lupus-prone mice, blood), the GC-induced neutrophil expansion result was “reduction of the GC-induced neutrophil expansion”. Moreover, the “sensitivity to GC of PDC, cDC and B cells” value in the data set with PDC (lupus-prone mice, spleen and blood) was “enhanced the sensitivity to GC of PDC, cDC and B cells”. The “cell death without GC” value with PDC (mouse, in vivo) was “did not induce cell death without GC”.
